Results on two molecules are retold here after patent US9636314B2, “Medicament for treatment of non-insulin dependent diabetes mellitus, hypertension and/or metabolic syndrome” (Stevia Limited, priority 2001, dated 2017).

Structures are written as SMILES. “Also recorded” adds a separate entry of the source.

Data set [1] relates to Salmonella typhirmurium strains. As to conditions: Salmonella typhimurium TA 98 and TA 100; cited from earlier work.
Data set [2] relates to rats. As to the kind of experiment: intravenous administration to rats (earlier work of the inventors). In kind it is in vivo, rat. The note with it: i.v.
For data set [3] the following is noted: rats; cited from earlier work.
For data set [4] the following is noted: six in vitro and one in vivo mutagenicity assays; cited from earlier work.
For data set [5], the system named is spontaneously hypertensive rats. The note with it: cited from earlier work.
Data set [6] concerns type II diabetic patients. Briefly: acute paired cross-over test meal study with oral stevioside. In kind it is in vivo, human. As to conditions: 1 g stevioside orally with standard meal. From the text: Twelve type II diabetic patients (4 female/8 males) with a mean age of 65.8±1.6 years, a diabetes duration of 6.0±1.3 years, a mean body mass index of 28.5±1.0, and a mean glycated hemoglobin HbA1c of 7.4±0.4 percent were included in the study. The experiment was an acute, paired, cross-over study in which two test meals were served during the experiments (A: Standard meal supplemented with 1 g of stevioside given orally; B: Standard meal given together with 1 g of gelatine (placebo) given orally. The total energy content of the test meals was 1725 kJ (protein 16 E %, fat 30 E %, carbohydrate 54 E %). Blood samples were drawn from an antecubital vein 30 minutes before and 240 minutes after ingestion of the test meal. The arterial blood pressure was continuously monitored during the experiment. Students paired t-test was used for comparing the effects of stevioside with placebo on the parameters measured. Data are given as mean±SEM.

The test system of another data set is GK-rats. As to the kind of experiment: four-week test diets (stevioside and/or soy) in Goto-Kakizaki rats with glucose tolerance test. The format is in vivo, rat. The note with it: 4 weeks, p<0.05. How it is done: Four test diets (A: Standard carbohydrate rich laboratory animal diet (Altromin); n=12 (Alt). B: Altromin supplemented with stevioside (Altromin+Stevioside); n=12; (Alt+Ste). C: Soy plus 20% Altromin; n=12; (Soy). D: Soy plus 20% Altromin plus stevioside; n=12; (Soy+Ste)) were administered for four weeks to four groups of adult rats. Each experimental group consisted of twelve female Goto-Kakizaki wish an age of 9 weeks. The rats received the stevioside (0.025 g/kg body weight/day) with the drinking water. […] Plasma concentrations of glucose, insulin, and glucagon were measured during the glucose tolerance test. Immediately before the glucose tolerance test fasting levels of triglycerides and cholesterol were determined. Concomitantly, the systolic blood pressure was measured using a tail cuff. (Plasma glucose was measured using MPR 3, 166 391, Glucose/GOD-PAP Method from Boehringer Mannheim) (Plasma insulin was measured using Sensitive Rat Insulin RIA, Cat #SRI-13K from Linco) (Plasma glucagon was measured using Glucagon RIA. Cat #GL-32K from Linco) (Blood pressure was measured using TSE Non-Invasive Blood Pressure Monitoring System from Technical Scientific Equipment GmbK) (Plasma cholesterol was measured GOD-PAP from Roche and triglycerides was measured using GHOD-PAP from Roche)

The subject of data set [7] is hamsters. The note with it: doses as high as 2.5 g/kg body weight/day; cited from earlier work.
Data set [8] in a line: stevioside infusion at normal blood glucose. In kind it is in vivo. As to conditions: bolus or constant intravenous infusion.
For data set [9] the following is noted: isolated perfused rat liver; cited from earlier work.
The subject of another data set is isolated mouse islets. As to the kind of experiment: glucose-stimulated insulin secretion from isolated mouse islets. The format is cell-based. As to conditions: for maximal stimulatory dose / glucose-stimulated insulin secretion: NMRI mouse islets; for glucose-stimulated insulin secretion: 16.7 mmol/l, 10^−9-10^−3 mol/l. How it is done: Islet from 6-10 NMRI mice were isolated and incubated in the presence of 16.7 mmol/l and 10^−9-10^−3 mol/l stevioside or 10^−9-10^−3 mol/l steviol. The results of these tests are illustrated in FIGS. 4a and 4b where each column represents mean±SEM from 24 incubations of single islets. Black bars in FIG. 4a indicate that stevioside is present and hatched bars indicate that stevioside is absent. Black bars in FIG. 4b indicate that steviol is present and hatched bars indicate that steviol is absent. The influence of the maximal stimulatory doses of 10^−3 mol/l stevioside and 10^−6 mol/l steviol was studied in NMRI mouse islets over a range between 0 and 16.7 mmol/l glucose. […] Black bars in FIG. 7a indicate that stevioside is present and hatched bars indicate that stevioside is absent. Black bars in FIG. 7b indicate that steviol is present and hatched bars indicate that steviol is absent.

The test system of data set [10] is GK rats. As to the kind of experiment: i.v. glucose tolerance test with stevioside in GK rats (plasma glucose and insulin). In kind it is in vivo, rat. As to conditions: 2.0 g glucose/kg + 0.2 g stevioside/kg i.v. How it is done:
In the following examples, the type II diabetic Goto-Kakizaki (GK) rats originated from Takeda Chemical Ind., Tokyo, Japan and were bred locally. As examples of the effects of a compound including the chemical formulas II, stevioside was tested on normal Wistar rats and on GK rats. 2.0 g glucose/kg body weight and 0.2 g stevioside/kg body weight were dissolved in 0.9% saline and infused intravenously. The plasma glucose and insulin levels were measured over a period of 2 hours. The results are shown in FIGS. 2a, 2b, 3a and 3b, were the O-O series (n=6 for Wistar and n=14 for GK) illustrate glucose infused alone and the (2)-(2) series (n=6 for Wistar and n=12 for GK) illustrate the combined glucose and stevioside infusion. Data are given as mean±SEM.

Data set [11] concerns isolated normal pancreatic rat islets. As to conditions: 7 mmol/l D-glucose; stevioside 1.0 mmol/l; cited from earlier work.
Data set [12] deals with GK rats. Briefly: plasma glucagon during glucose tolerance test in GK rats. In kind it is in vivo, rat. As to conditions: stevioside 0.2 g/kg i.v. bolus, glucose 2.0 g/kg. How it is done:
During a glucose tolerance test, an intravenous bolus of stevioside of 0.2 g/kg body weight was injected in GK rats (the (2)-(2) serie (n=6)). GK rats receiving 0.9% saline intravenously served as controls (the O-O serie (n=6)). Glucose 2.0 g/kg body weight was administered as a bolus at timepoint 0 min. The plasma glucagon responses are shown as mean±SEM in FIGS. 5a (control) and 5b (GK). The plasma glucagon was suppressed in the stevioside treated GK rat.

For data set [13], the system named is GK rats. As to the kind of experiment: blood pressure during 6 weeks treatment of GK rats with stevioside. In kind it is in vivo, rat. As to conditions: 0.025 g/kg/24 h in drinking water, detectable after 2 weeks, then stable. As to the method:
GK rats were treated with stevioside 0.025 g/kg body weight/24 h for 6 weeks. Stevioside was administered in the drinking water. GK rats receiving drinking water with 0.111 g D-glucose/kg body weight/24 h served as controls. Systolic (FIG. 6a, control: O-O series, stevioside-treated: (2)-(2) series) and diastolic (FIG. 6b, control: O-O series, stevioside-treated: (2)-(2) series) blood pressures were measured on the tail.

The next data set has as its system F344 rats. As to conditions: cited from earlier work.
For the next data set, the system named is mice. The note with it: mouse, in vivo; cited from earlier work.
Data set [14] deals with rats. As to conditions: rat, in vivo; cited from earlier work.
The subject of data set [15] is hamsters. The note with it: cited from earlier work.

As for `C=C1C[C@@]23CC[C@H]4[C@@](C)(CCC[C@@]4(C)C(=O)O[C@@H]4O[C@H](CO)[C@@H](O)[C@H](O)[C@H]4O)[C@@H]2CC[C@]1(O[C@@H]1O[C@H](CO)[C@@H](O)[C@H](O)[C@H]1O[C@@H]1O[C@H](CO)[C@@H](O)[C@H](O)[C@H]1O)C3` [stevioside], the mutagenic effect entry in data set [1] was “no mutagenic effect”. In the data set with rats [2], the “effect when administered intravenously to rats” value is “anti-hyperglycemic, glucagonostatic and insulinotropic effect”. Also, the route of excretion result in data set [3] was “excreted by the urine”. For the same molecule, in data set [4], the mutagenicity result is “not mutagenic”. Besides, the “fall in the systolic blood pressure” value in data set [5] (200 mg/kg intravenously (maximum hypotensive effect)) is “only small”. Further, in data set [5] (intravenous stevioside), the heart rate entry is “Neither the heart rate nor the plasma catecholamines were significantly changed” and the plasma catecholamines entry was “Neither the heart rate nor the plasma catecholamines were significantly changed”. Besides, the “reduction of the postprandial blood glucose response compared to placebo” value in data set [6] (mean±SEM, p<0.004) turned out to be 18±5%. For the same molecule, in [6] (mean±SEM, p<0.02 vs placebo), the “absolute IAUC of postprandial blood glucose” value was found to be 522±64 mmol/l×240 min. In addition, the “postprandial glucagon like peptide-1 (GLP-1) levels” value in data set [6] (mean±SEM, p<0.045 vs placebo) turned out to be 1529±296. The molecule further registered a postprandial glucagon levels in data set [6] (mean±SEM, p=0.02 vs placebo) of 281±33. Further, the “insulin response (IAUC)” value in [6] (p=0.09, not statistically significant) is recorded as “tended to stimulate the insulin response”. Besides, in the data set on GK-rats, the “suppression of the systolic blood pressure (Δ), stevioside in combination with Altromin” value is −28 mmHg and the “suppression of the systolic blood pressure (Δ), stevioside in combination with soy” value is on record as −21 mmHg. Moreover, the “effect on growth or reproduction” value in the data set on hamsters [7] was “no effect on growth or reproduction”. Also, the hypoglycemia entry in data set [8] was “did not cause any hypoglycemia”. The metabolism result in data set [9] is given as “not metabolised”. Also, in the data set on isolated mouse islets, the maximal stimulatory dose is reported as 10^−3 mol/l and the glucose-stimulated insulin secretion entry is on record as “capable of potentiating glucose-stimulated insulin secretion”. Also, in the data set with GK rats [10], the “time at which a significant decrease of plasma glucose was observed” value stood at 30 min. For the same molecule, the “blood glucose response to intravenous glucose” value in the data set with GK rats [10] (2 hours) was “inhibited blood glucose responses; also recorded: diminished glucose response”. The insulin response result in the data set on GK rats [10] (compared to the Wistar rat) is “pronounced increase in the insulin response”. Moreover, the insulin output result in data set [11] is listed as “significant increase in insulin output”. The plasma glucagon result with GK rats [12] was “suppressed”. Further, the “decrease in the blood pressure (systolic and diastolic, tail)” value in the data set with GK rats [13] is on record as 10-15%. In the data set on F344 rats, the carcinogenicity result is “not carcinogenic”.
In the case of `C=C1C[C@@]23CC[C@H]4[C@@](C)(CCC[C@@]4(C)C(=O)O)[C@@H]2CC[C@]1(O)C3` [steviol], the mutagenic effect entry in data set [1] is recorded as “no mutagenic effect”. In the data set with rats [2], the “effect when administered intravenously to rats” value was “anti-hyperglycemic, glucagonostatic and insulinotropic effect”. Moreover, in [4], the mutagenicity result is “dose-related positive responses in some mutagenicity test”. In addition, the LD50 result with mice was “higher than 15 g/kg body weight”; in the data set with rats [14], “higher than 15 g/kg body weight”; in the data set on hamsters [15] (hamster, in vivo) it was 5-6 g/kg body weight. Also, in the data set on isolated mouse islets, the “stimulation of insulin secretion compared with stevioside” value was “to a greater extent”. In addition, in the data set with isolated mouse islets, the maximal stimulatory dose is 10^−6 mol/l. The glucose-stimulated insulin secretion entry in the data set with isolated mouse islets was “capable of potentiating glucose-stimulated insulin secretion”. For the same molecule, the “finding that accompanied lethality” value in the data set with hamsters [15] (hamsters, correlated to increases in blood urea nitrogen and creatinine) is “degeneration of the proximal tubular cells”.
